Data published in patent publication US9921224B2, “Use of CD36 to identify cancer subjects for treatment” (Children's Medical Center Corporation, priority 2013, dated 2018).
Where no end group is shown, it is not given here. [ ]: non-standard residue; d: D form.

What was measured:
[1] = tested on: Ovarian cancer cells expressing CD36; experiment: Viability of ovarian cancer cells expressing CD36 treated with Tsp-1; type: cell-based; conditions: Tsp-1 100 ng, 500 ng or 1000 ng; 0 hours or 48 hours
Procedure: Ovarian cancer cells expressing CD36 were treated with either control or thrombospondin (Tsp-1, either 100 ng, 500 ng or 1000 ng) and the percent of viable cells was measured at 0 hours or 48 hours.

[2] = tested on: LLC cells; experiment: In vitro cell proliferation (MTT) assay, LLC cells; type: cell-based, murine; conditions: 48 hours after addition of serially diluted amounts
Procedure: Cell proliferation was measured using the MTT (3-{4,5-Dimethylthiazol-2-yl}-2,5-diphenyltetrazolium bromide, Sigma-Aldrich) assay. Cells were seeded in 50 uL growth medium in 96 well culture plates and allowed to attach overnight. 50 uL of growth medium plus two-fold concentrated treatment reagents were then added. After each treatment time point, 10 uL of 5% MTT solution (buffered in PBS) was added to each well. Plates were incubated for an additional 4 h at 37° C. to allow MTT to be metabolically converted into formazan crystals at cell mitochondria. The formazan crystals were finally solubilized by adding 100 ul of 10% Sodium Dodecyl Sulphate in 50% N—N-Dimethylformamide to each microplate well. Absorbances at 550 and 680 nm (corresponding to formazan salt and reference wavelengths, respectively) were measured using a colorimetry microplate reader. Wells containing only complete medium were used as controls. Each experiment was performed twice, using six replicates for each drug concentration.
To test this, LLC cells were treated with either recombinant Tsp-1 or DWLPK (SEQ ID NO: 2) Psap peptide and cell proliferation was measured using an MTT assay. […] This supports the hypothesis that Tsp-1 can act directly on cancer cells, as this assay was performed in vitro in the absence of any blood vessels.

[3] = tested on: ovarian cancer cells expressing luciferase; experiment: Ovarian cancer mouse model (luciferase intensity); type: in vivo; conditions: high CD36 ovarian cancer model
Procedure: For the ovarian cancer mouse model, 1 million ovarian cancer cells expressing luciferase were injected intraperitoneally. Treatment was initiated 17 days later with cisplatin (4 mg/kg QOD), the psap peptide dWlP (SEQ ID NO: 47, 40 mg/kg QD), a combination of cisplatin and psap peptide, or PBS QD. Luciferase intensity was measured on several days beginning on about day 17 and measured over time.

[4] = tested on: AsPc1 human pancreatic cells; experiment: Pancreatic cancer mouse model; type: in vivo, SCID mice; conditions: for primary tumor mass: high CD36 AsPC pancreatic model, SCID mice, 20 or 40 mg/kg/day, from day 25 daily for 21 days
Procedure: For the pancreatic cancer mouse model, 1×10^6 AsPc1 human pancreatic cells were injected into the pancreas of SCID mice. Mice were treated either with a control or with the psap peptide dWlP (SEQ ID NO: 47, 20 mg/kg/day or 40/mg/kg/day). Treatment began on day 25 and continued daily for 21 days. The mice were then euthanized and the primary tumor mass was measured. The presence or absence of ascites was also measured.

[5] = tested on: B16-B16 cells; experiment: Melanoma mouse model; type: in vivo, mice; conditions: low CD36 B16-B16 melanoma; 10 or 40 mg/kg; up to about 20-25 days post cell injection
Procedure: For the melanoma mouse model, B16-B16 cells were injected into mice. Mice were treated with either psap peptide dWlP (SEQ ID NO: 47, 10 or 40 mg/kg) or control. The volume of the tumor was measured over time up until about 20-25 days post cell injection.

Substance	percent of viable cells (Tsp-1 mediated cell killing) [1]	cell proliferation (MTT assay) [2]	metastatic disease ([3]; dWlP 40 mg/kg QD)	tumor response (luciferase intensity over time) ([3]; dWlP 40 mg/kg QD from day 17)	primary tumor mass [4]	primary tumor mass ([4]; listed as psap peptide)	mice that form ascites (inhibition of metastasis) ([4]; pancreatic cancer model, control: 4 of 10 mice)	tumor growth (tumor volume over time) [5]
Tsp-1: recombinant thrombospondin (Tsp-1), a ligand of CD36	sensitive to Tsp-1 mediated cell killing in a dose-dependent manner	capable of decreasing cell proliferation						
DWLPK: DWLPK (SEQ ID NO: 2) Psap peptide, derived from a fragment of Saposin A (Psap peptide)		did not affect cell proliferation						
dWlP: psap peptide dWlP (SEQ ID NO: 47); lower case D and L indicate D-amino acids ([dD]W[dL]P)			showed regression of metastatic disease	caused regression of cancer	primary tumor mass was inhibited	regressed	1 of 19	inhibited tumor growth but did not regress the tumor
